Laboratory results: paper PMC6511888, “Synthesis, Biological Evaluation, and Molecular Modeling Studies of New Thiadiazole Derivatives as Potent P2X7 Receptor Inhibitors” (Frontiers in Chemistry, 2019)

Experiments:
P2X7R = molecular target: T1, P2X7R (Mus musculus, UniProt Q9Z1M0); assay: Dye uptake assay (propidium iodide) in mouse peritoneal macrophages; format: cell-based; conditions: 10 μM; percentage relative to the maximum uptake of propidium stimulated by 1 mM ATP only; mean ± SD
T1 construct: plated for 24 h before dye uptake assays, whole-cell patch clamp experiments, and IL-1β release assays; endogenous in cells; host or cells: mouse (Swiss Webster) peritoneal macrophages
T1 sequence (Q9Z1M0 1-595): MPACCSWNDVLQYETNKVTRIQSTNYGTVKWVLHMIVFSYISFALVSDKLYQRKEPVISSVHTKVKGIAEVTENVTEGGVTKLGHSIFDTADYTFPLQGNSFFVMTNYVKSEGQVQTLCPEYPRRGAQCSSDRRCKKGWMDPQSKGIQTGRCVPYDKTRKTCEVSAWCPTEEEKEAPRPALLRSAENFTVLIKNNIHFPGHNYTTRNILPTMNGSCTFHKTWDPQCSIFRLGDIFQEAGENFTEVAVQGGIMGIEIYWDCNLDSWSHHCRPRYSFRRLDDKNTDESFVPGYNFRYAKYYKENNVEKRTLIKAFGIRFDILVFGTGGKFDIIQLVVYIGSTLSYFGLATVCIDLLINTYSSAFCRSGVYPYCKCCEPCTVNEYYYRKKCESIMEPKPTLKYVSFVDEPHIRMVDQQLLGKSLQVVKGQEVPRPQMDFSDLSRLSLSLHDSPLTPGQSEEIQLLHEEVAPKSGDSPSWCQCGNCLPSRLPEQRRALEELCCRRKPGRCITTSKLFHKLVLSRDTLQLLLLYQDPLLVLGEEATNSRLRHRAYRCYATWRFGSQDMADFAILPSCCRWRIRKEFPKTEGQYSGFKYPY
Procedure: Our protocols adhered to the Ethical Principles in Animal Experimentation adopted by the Brazilian College of Animal Experimentation and approved by the FIOCRUZ Research Ethics Committee (Faria et al., [2005]; number L039- 2016). Male mouse (Swiss Webster) peritoneal macrophages were collected from peritoneal cavity lavage and plated for 24 h before dye uptake assays, whole-cell patch clamp experiments, and IL-1β release assays.
HEK-293 cells transfected with hP2X7R and mouse peritoneal macrophages were plated at 2.5 × 10^6 or 5 × 10^5 cells/ml, respectively, in 96-well culture plates containing DMEM with 10% FBS and anti-biotics (50 U/ml penicillin and […] streptomycin) in a humidified 5% CO2 atmosphere at 37°C for 24 h (Faria et al., [2018]).
[…] In the last 5 min of ATP incubation, propidium iodide for macrophages (PI; 750 nM) or ethidium bromide (EB; 25 μM) for HEK-293 cells was added to all wells. PI dye was excited at a wavelength of 530 nm, and its fluorescence emission was read at a wavelength of 590 nm using an M5 plate reader (Molecular Devices). EB dye was excited at a wavelength of 530 nm and emitted at a wavelength of 620 nm.

[1] = tested on: mouse peritoneal macrophages; assay: LDH release assay (toxicity); format: cell-based; conditions: 10 μM; relative to maximum LDH release caused by 0.05% Triton X-100; cell type not given; mean ± SD
Procedure: Mouse peritoneal macrophages (5 × 10^5 cells) and HEK-293 cells transfected with P2X7R (5 × 10^5 cells) were plated in a 96-well-plate for 24 h before the treatment. […] The supernatant collected in this assay was used to measure the presence of LDH in the media using a cytotoxicity detection kit (Sigma kit for LDH) according to the manufacturer's instructions (Faria et al., [2018]).

inhibition at 10 µM (P2X7R) [%] | melting point [°C] | Structure (SMILES) | % LDH release [1] [%]
92.5 ± 0.3 | 170 to 171 | Cc1cc(C)n(-c2nnc(-c3ccccc3)s2)n1 [Compound 11a] | 34.1 ± 2
90.2 ± 0.4 | 165 to 167 | CCOC(=O)c1cnn(-c2nnc(-c3ccccc3)s2)c1N [Compound 9e] | 36.3 ± 11.0
54.7 ± 0.5 | 147 to 148 | Cc1cc(C(F)(F)F)nn1-c1nnc(-c2ccc(Cl)cc2)s1 [Compound 14d] | 43 ± 5
92 ± 2 | 139 to 140 | Cc1cc(C(F)(F)F)nn1-c1nnc(-c2ccccc2Cl)s1 [Compound 14b] | 26.6 ± 1.2
91 ± 1 | 163 to 164 | Cc1cc(C(F)(F)F)nn1-c1nnc(-c2ccccc2)s1 [Compound 14a] | 32 ± 1
71 ± 0.2 | 184 to 185 | CC1(O)CC(C(F)(F)F)=NN1c1nnc(-c2ccc(Cl)cc2)s1 (centres unmarked) [Compound 13d] | 38.5 ± 6.2
89.7 ± 2.6 | 163 to 165 | Cc1cc(C)n(-c2nnc(-c3ccccc3Cl)s2)n1 [Compound 11b] | 45.7 ± 1.7
62.2 ± 4.02 | > 300 | N#Cc1cnn(-c2nnc(-c3ccc(Cl)cc3)s2)c1N [Compound 9d] | 46.3 ± 5.12
90.5 ± 1.4 | 183 to 185 | CC1(O)CC(C(F)(F)F)=NN1c1nnc(-c2ccccc2)s1 (centres unmarked) [Compound 13a] | 8 ± 0.6
64 ± 3.7 | 252 to 253 | CCOC(=O)c1cnn(-c2nnc(-c3ccc(Cl)cc3)s2)c1N [Compound 9h] | 15 ± 1.9
92 ± 0.4 | 182 to 183 | CC1(O)CC(C(F)(F)F)=NN1c1nnc(-c2ccc(F)cc2)s1 (centres unmarked) [Compound 13c] | 45.3 ± 1.4
89.2 ± 2.2 | 234 to 235 | N#Cc1cnn(-c2nnc(-c3ccccc3)s2)c1N [Compound 9a] | 58.1 ± 4.8
92.5 ± 0.4 | 149 to 150 | Cc1cc(C(F)(F)F)nn1-c1nnc(-c2ccc(F)cc2)s1 [Compound 14c] | 10.6 ± 0.5
90.7 ± 1.6 |  | CC1(O)CC(C(F)(F)F)=NN1c1nnc(-c2ccccc2Cl)s1 (centres unmarked) [Compound 13b] | 19.6 ± 0.6
90.8 ± 1.1 | 250 to 251 | CCOC(=O)c1cnn(-c2nnc(-c3ccc(F)cc3)s2)c1N [Compound 9g] | 22.6 ± 0.3
69.8 ± 0.7 | 202 to 203 | Cc1cc(C)n(-c2nnc(-c3ccc(Cl)cc3)s2)n1 [Compound 11d] | 36.94 ± 10.6
